Source: patent US6323315A, “Dolastatin peptides” (priority 2000, dated 2001)

Assays:
[1] = test system: human lymphoma cell lines; conditions: cited from earlier work
[2] = test system: tubulin; conditions: cited from earlier work
[3] = test system: P388 lymphocytic leukemia (PS system) cell line; conditions: cited from earlier work
[4] = test system: SK-MEL-5 (melanoma); experiment: in vitro cytotoxicity, cultured cancer cell panel: SK-MEL-5; format: cell-based, Human; conditions: for GI-50: SK-MEL-5, melanoma, 48 hours; for LC-50 / TGI: SK-MEL-5; for LC-50: -50% growth; for TGI: total growth inhibition (0% growth)
Method: (§1) Compounds prepared according to Examples 1-14 above were evaluated for in vitro cytotoxicity against a panel of cultured cancer cells, including the cell lines OVCAR-3 (ovarian cancer), SF-295 (central nervous system), A498 (renal cancer), NCI-H460 (non-small lung carcinoma), KM20L2 (colon cancer) and SK-MEL-5 (melanoma). For each cell line, each compound was tested at 5 concentrations, 100 μg/mL, 10 μg/mL, 1 μg/mL, 0.1 μg/mL and 0.01 μg/mL. Percent growth values were calculated for each concentration, and the two or three concentrations with growth values above, below or near 50% growth (relative to control) were used to calculate the ED50 value using a linear regression calculation. In cases in which 50% growth inhibition was not observed for any of the concentrations, the ED50 value was expressed as ED50 >100 μg/mL. If the growth inhibition was greater than 50% for each concentration, the ED50 was expressed as <0.01 μg/mL. Similar calculations were performed for total growth inhibition (TGI; 0% growth) and LC50 (-50% growth).
(§2) At the start of each experiment, cells from the in vitro cell culture were inoculated into tubes or microtiter plates. One set of control tubes/plates was immediately counted to determine the cell count at the beginning of the experiment. This is the "baseline count" or T0 reading. After 48 hours, a second set of control tubes/plates is analyzed to determine the control growth value. The growth or death of cells relative to the T0 value is used to define the percent growth.

[5] = test system: A498 (renal cancer); experiment: in vitro cytotoxicity, cultured cancer cell panel: A498; format: cell-based, Human; conditions: for GI-50: A498, renal, 48 hours; for LC-50 / TGI: A498; for LC-50: -50% growth; for TGI: total growth inhibition (0% growth)
Method: as §1, §2

[6] = test system: NCI-H460 (non-small lung carcinoma); experiment: in vitro cytotoxicity, cultured cancer cell panel: NCI-H460; format: cell-based, Human; conditions: for GI-50: NCI-H460, lung-NSC, 48 hours; for LC-50 / TGI: NCI-H460; for LC-50: -50% growth; for TGI: total growth inhibition (0% growth)
Method: as §1, §2

[7] = test system: KM20L2 (colon cancer); experiment: in vitro cytotoxicity, cultured cancer cell panel: KM20L2; format: cell-based, Human; conditions: for GI-50: KM20L2, colon, 48 hours; for LC-50 / TGI: KM20L2; for LC-50: -50% growth; for TGI: total growth inhibition (0% growth)
Method: as §1, §2

[8] = test system: P-388 Lymphocytic Leukemia; experiment: Murine P-388 lymphocytic leukemia cell line inhibition; format: cell-based; conditions: P-388 mouse leukemia
[9] = test system: OVCAR-3 (ovarian cancer); experiment: in vitro cytotoxicity, cultured cancer cell panel: OVCAR-3; format: cell-based, Human; conditions: for GI-50: OVCAR-3, ovarian, 48 hours; for TGI / LC-50: OVCAR-3; for TGI: total growth inhibition (0% growth); for LC-50: -50% growth
Method: as §1, §2

[10] = test system: SF-295 (central nervous system); experiment: in vitro cytotoxicity, cultured cancer cell panel: SF-295; format: cell-based, Human; conditions: for GI-50: SF-295, CNS, 48 hours; for LC-50 / TGI: SF-295; for LC-50: -50% growth; for TGI: total growth inhibition (0% growth)
Method: as §1, §2

Substance | growth of four different human lymphoma cell lines [1] | tubulin polymerization [2] | GI-50 [4] [µg/mL] | LC-50 [4] [µg/mL] | TGI [4] [ng/mL] | GI-50 [5] [µg/mL] | LC-50 [5] [µg/mL] | TGI [5] [ng/mL] | GI-50 [6] [µg/mL] | LC-50 [6] [µg/mL] | TGI [6] [ng/mL] | GI-50 [7] [µg/mL] | LC-50 [7] [µg/mL] | TGI [7] [ng/mL] | ED50 [8] [ng/mL] | GI-50 [9] [µg/mL] | TGI [9] [ng/mL] | GI-50 [10] [µg/mL] | LC-50 [9] [µg/mL] | LC-50 [10] [µg/mL] | further results
Dolastatin 10 | effectively inhibit | effectively inhibit | – | – | – | – | – | – | – | – | – | – | – | – | – | – | – | – | – | – | –
Dolastatin 15 | effectively inhibit | effectively inhibit | – | – | – | – | – | – | – | – | – | – | – | – | – | – | – | – | – | – | growth of P388 lymphocytic leukemia (PS system) cell line [3]: inhibits the growth
Dov-Val-Dil-Dap 1-bicyclo[3.3.0]octane amide [Compound 13b] | – | – | 0.0007 | > 0.01 | > 10 | 0.002 | > 0.01 | > 10 | 0.00047 | > 0.01 | > 10 | 0.00036 | > 0.01 | > 10 | 2.2 | – | – | – | – | – | –
Dov-Val-Dil-Dap 2-[p-aminophenyl]ethylamide [Compound 29d] | – | – | 0.00023 | – | – | > 0.01 | – | – | 0.00013 | – | 0.87 | 4.9e-05 | – | > 10 | 0.338 | 5e-05 | 0.79 | 0.00053 | – | – | –
Dov-Val-Dil-Dap-Met 1-(bicyclo[3.3.0]octane) Amide [Compound 12d] | – | – | 0.00044 | > 0.01 | > 10 | 0.00048 | > 0.01 | > 10 | 0.00029 | > 0.01 | 4 | 0.0003 | > 0.01 | 0.9 | – | 0.00031 | > 10 | 0.00047 | > 0.01 | > 0.01 | TGI [10]: > 10 ng/mL
Dov-Val-Dil-Dap-Phe Amide [Compound 28d] | – | – | 5.6e-07 | > 0.0001 | > 0.1 | 3.4e-06 | > 0.0001 | > 0.1 | 4.1e-07 | > 0.0001 | > 0.1 | 2e-07 | > 0.0001 | 0.0041 | 0.00255 | 3e-07 | 0.011 | 6.1e-07 | > 0.0001 | > 0.0001 | TGI [10]: > 0.1 ng/mL
